What all share (format): cell-based
Assay [1] has as its system Propionibacterium acnes ATCC 11827. Briefly: Broth culture growth with nisin. The note with it: 400 International Units per milliliter, anaerobic, 37° C., 24 hours. The protocol:
(§1) Nisin at a final concentration of 400 International Units per milliliter was also added to broth cultures of each of the above bacteria strains. The broth cultures were incubated anaerobically at 37° C. for 24 hours.

For assay [2], the system named is Propionibacterium avidum ATCC 25577. Briefly: Broth culture growth with nisin. As to conditions: 400 International Units per milliliter, anaerobic, 37° C., 24 hours. As for the experimental part: as §1
Assay [3] relates to Propionibacterium granulosum ATCC 25564. Briefly: Broth culture growth with nisin. The note with it: 400 International Units per milliliter, anaerobic, 37° C., 24 hours. As for the experimental part: as §1
The subject of assay [4] is Propionibacterium acnes ATCC 6919. Briefly: Broth culture growth with nisin. As to conditions: 400 International Units per milliliter, anaerobic, 37° C., 24 hours. As for the experimental part: as §1
Assay [5] concerns Propionibacterium acnes ATCC 11827. Nature of the assay: Spot on lawn method (Example IV), nisin. As to conditions: 4,000 International Units per milliliter. The protocol: (§2) Propionibacterium acnes, Propionibacterium granulosum, or other cutaneous propionibacteria to be examined for sensitivity to the bacteriocin are grown in actinomyces broth at 37° C. for 2 days under anaerobic conditions. Cultures (15 μL) being examined for sensitivity are added to soft actinomyces agar (5 ml) and the mixture is applied uniformly over each actinomyces agar plate. Preparations concentrated so as to contain 6,400 Activity Units/ml of bacteriocins are spotted (25 μl spots) onto the surface of the prepared plates. These plates are held at 37° C. for 2 days under anaerobic conditions to permit growth of the cutaneous culture and examined for zones of inhibition (lack of growth) where the bacteriocin was applied. Zones are evidence of bacteriocin inhibition.
(§3) Specifically, a solution of nisin containing 4,000 International Units per milliliter was tested for activity against Propionibacterium acnes ATCC 6919, Propionibacterium acnes ATCC 11827, Propionibacterium avidum ATCC 25577 and Propionibacterium granulosum ATCC 25564 according to the method described in Example IV above. It was observed that nisin inhibited all of the cutaneous cultures.

Assay [6] has as its system Propionibacterium avidum ATCC 25577. Briefly: Spot on lawn method (Example IV), nisin. The note with it: 4,000 International Units per milliliter. The protocol: as §2, §3
The subject of assay [7] is Propionibacterium granulosum ATCC 25564. Briefly: Spot on lawn method (Example IV), nisin. The note with it: 4,000 International Units per milliliter. As for the experimental part: as §2, §3
Assay [8] concerns Propionibacterium acnes ATCC 6919. Briefly: Spot on lawn method (Example IV), nisin. As to conditions: 4,000 International Units per milliliter. The protocol: as §2, §3

Turning to nisin, the “growth of broth culture” value in assay [1], in assay [2], in assay [3] and in assay [4] was “markedly reduced the growth” each time. Moreover, the “inhibition (zones)” value in assay [5], in assay [6], in assay [7] and in assay [8] was “inhibited” throughout.

Source of the values: US6221847A, “Composition and method for treating bacterial infection” (Clemson University, priority 1999, dated 2001).
